Experimental data: patent US12577241B2, “Polycyclic pyridopyrazine derivative” (Shionogi & Co., Ltd., priority 2019, dated 2026)

system: HIV; assay: Test Example 1: Anti-HIV activity (MT-4 cells, CellTiter-Glo); format: cell-based; conditions: 4 days culture, CellTiter-Glo luminescence, read-out: EC50 (50% HIV inhibitory concentration)
Procedure: Test Example 1: Anti-HIV Activity
Serial dilutions of a test sample were prepared in a 384-well microplate by a dispensing machine. 6.25×10^4 cells/mL of a MT-4 cell suspension was dispensed at 20 μL/well to the plate containing the test sample. Then, an HIV virus solution was dispensed at 20 μL/well. The plate was mixed with a plate mixer and cultured for 4 days in a CO2 incubator. On day 4 of culture, CellTiter-Glo or CellTiter-Glo 2.0 was dispensed at 20 μL/well. The plate was reacted while being stirred with the plate mixer at room temperature for about 15 minutes. The amount of luminescence of the plate after the reaction was measured with a microplate reader. A 50% HIV inhibitory concentration (EC50) was determined from a concentration-dependent curve using the following 4 parameter logistic curve fitting model. y=A+((B−A)/(1+((C/x)^D))) • A=minimum rate of inhibition (negative control, 0%) • B=maximum rate of inhibition (positive control, 100%) • C=compound concentration at an inflection point • D=slope coefficient • x=compound concentration • y=rate of inhibition (%) (Results)

SMILES	EC50
CCN1C(=O)c2c(O)c(=O)c(C(=O)NCc3cccc(Cl)c3F)cn2[C@H]2CC(F)(F)C[C@H]21 [Compound I-001]	1.4 nM
CCN1C(=O)c2c(O)c(=O)c(C(=O)NCc3cccc(Cl)c3F)cn2[C@H]2[C@H](COC)CC[C@H]21 [Compound I-013]	2.5 nM

same assay, conditions: Human immunodeficiency virus 1, MT4, 96 h, 4 days culture, CellTiter-Glo luminescence, read-out: EC50 (50% HIV inhibitory concentration)

EC50	SMILES
1.2 nM	CN1C(=O)c2c(O)c(=O)c(C(=O)NCc3cccc(Cl)c3F)cn2[C@H]2CCCC[C@H]21 [Compound I-028]
2.2 nM	CCN1C(=O)c2c(O)c(=O)c(C(=O)NCc3cccc(Cl)c3F)cn2[C@H]2CCC[C@H]21 [Compound I-029]
0.7 nM	CN1C(=O)c2c(O)c(=O)c(C(=O)NCc3c(F)cc(F)cc3F)cn2[C@H]2CCCC[C@H]21 [Compound I-027]
1.3 nM	CCN1C(=O)c2c(O)c(=O)c(C(=O)NCc3c(F)cc(F)cc3F)cn2[C@H]2CCCC[C@H]21 [Compound I-026]
2.6 nM	CCN1C(=O)c2c(O)c(=O)c(C(=O)NCc3c(F)cc(F)cc3F)cn2[C@H]2CCC[C@H]21 [Compound I-030]

Second part, the compound before the results:

SMILES	EC50
CN1C(=O)c2c(O)c(=O)c(-c3nnc(Cc4ccc(F)cc4F)s3)cn2[C@H]2CCCC[C@H]21 [Compound I-018]	2.3 nM
CCN1C(=O)c2c(O)c(=O)c(C(=O)NCc3cccc(Cl)c3F)cn2[C@H]2CCCC[C@H]21 [Compound I-024]	1.9 nM
CCN1C(=O)c2c(O)c(=O)c(C(=O)NCc3cccc(Cl)c3F)cn2[C@H]2C[C@@H](COC)CC[C@H]21 [Compound I-014]	3.8 nM
CCN1C(=O)c2c(O)c(=O)c(-c3nnc(Cc4ccc(F)cc4F)s3)cn2[C@H]2CCCC(F)(F)[C@H]21 [Compound I-021]	3.6 nM
CCN1C(=O)c2c(O)c(=O)c(C(=O)NCc3c(F)cc(F)cc3F)cn2[C@@H]2[C@H]1CCCC2(F)F [Compound I-006]	0.63 nM
CCN1C(=O)c2c(O)c(=O)c(C(=O)NCc3ccc(F)cc3F)cn2[C@H]2CCCC[C@H]21 [Compound I-025]	2.1 nM
CCN1C(=O)c2c(O)c(=O)c(C(=O)NCc3cccc(Cl)c3F)cn2[C@H]2C[C@@H](COC)C[C@H]21 [Compound I-015]	2.5 nM
CCN1C(=O)c2c(O)c(=O)c(C(=O)NCc3cccc(Cl)c3F)cn2[C@H]2CCCC(F)(F)[C@H]21 [Compound I-007]	0.7 nM
CCN1C(=O)c2c(O)c(=O)c(-c3nnc(Cc4ccc(F)cc4F)s3)cn2[C@H]2CCC(F)(F)C[C@H]21 [Compound I-023]	4.6 nM
CN1C(=O)c2c(O)c(=O)c(C(=O)NCc3nccc(Cl)c3F)cn2[C@H]2CCCC[C@H]21 [Compound I-004]	3.3 nM
CCN1C(=O)c2c(O)c(=O)c(C(=O)NCc3cccc(Cl)c3F)cn2[C@H]2CCC(F)(F)C[C@H]21 [Compound I-011]	9 nM
CCN1C(=O)c2c(O)c(=O)c(-c3nnc(Cc4ccc(F)cc4F)s3)cn2[C@H]2[C@@H]3CC[C@@H](C3)[C@H]21 [Compound I-019]	8.2 nM
CCN1C(=O)c2c(O)c(=O)c(C(=O)NCc3c(F)cc(F)cc3F)cn2[C@H]2CCC(F)(F)C[C@H]21 [Compound I-012]	0.93 nM
CCN1C(=O)c2c(O)c(=O)c(C(=O)NCc3c(F)cc(F)cc3F)cn2[C@H]2CCCC(F)(F)[C@H]21 [Compound I-008]	0.52 nM
CCN1C(=O)c2c(O)c(=O)c(C(=O)NCc3c(F)cc(F)cc3F)cn2[C@H]2CC(F)(F)C[C@H]21 [Compound I-002]	1.5 nM
CCN1C(=O)c2c(O)c(=O)c(C(=O)NCc3c(F)cc(F)cc3F)cn2[C@H]2[C@@H]3CC[C@@H](C3)[C@H]21 [Compound I-010]	5.2 nM

system: HIV; assay: Test Example 1B: Anti-HIV activity (MT-4 cells, MTT); format: cell-based; conditions: Human immunodeficiency virus 1, MT4, 96 h, 4 days culture, MTT absorbance, read-out: EC50 (50% HIV inhibitory concentration)
Procedure: Test Example 1B: Anti-HIV Activity
Serial dilutions of a test sample were prepared in a 96-well microplate (50 μL/well). 2.5×10^5 cells/mL of a MT-4 cell suspension was dispensed at 100 μL/well to the plate containing the test sample. Then, an HIV virus solution was dispensed at 50 μL/well. The plate was mixed with a plate mixer and cultured for 4 days in a CO2 incubator. An MTT (3-(4,5-dimethylthiazol-2-yl)-2,5-diphenyltetrazolium bromide) solution was dispensed at 30 μL/well. The plate was reacted for 1 hour in a CO2 incubator. 150 μL of the supernatant was removed from each well so as not to take up the cells. 150 μL of a cell lysis solution was added to each well and well mixed with a plate mixer until the cells were completely lysed. The absorbance of the mixed plate was measured at two wavelengths of 560 nm and 690 nm using a microplate reader. A 50% HIV inhibitory concentration (EC50) was determined from a concentration-dependent curve using the following 4 parameter logistic curve fitting model. y=A+((B−A)/(1+(C/x)^D)) • A=minimum rate of inhibition (negative control, 0%) • B=maximum rate of inhibition (positive control, 100%) • C=compound concentration at an inflection point • D=slope coefficient • x=compound concentration • y=rate of inhibition (%) (Results)

EC50	SMILES
9.8 nM	CCN1C(=O)c2c(O)c(=O)c(C(=O)NCc3nccc(Cl)c3F)cn2[C@H]2[C@@H]1CCC2(F)F [Compound I-039]
6.2 nM	CCN1C(=O)c2c(O)c(=O)c(C(=O)NCc3cccc(Cl)c3F)cn2[C@H]2[C@@H]1[C@@H]1CC[C@H]2O1 [Compound I-043]
7.9 nM	CCN1C(=O)c2c(O)c(=O)c(C(=O)NCc3nccc(Cl)c3F)cn2[C@H]2CC(F)(F)CC[C@H]21 [Compound I-042]
12 nM	CCN1C(=O)c2c(O)c(=O)c(C(=O)NCc3nccc(Cl)c3F)cn2[C@H]2Cc3ccccc3[C@H]21 [Compound I-034]
13 nM	CCN1C(=O)c2c(O)c(=O)c(C(=O)NCc3nccc(Cl)c3F)cn2[C@@H]2[C@H]1CCC2(F)F [Compound I-040]
9.7 nM	CCN1C(=O)c2c(O)c(=O)c(C(=O)NCc3cccc(Cl)c3F)cn2[C@H]2Cc3ccccc3[C@H]21 [Compound I-033]
4.3 nM	CCN1C(=O)c2c(O)c(=O)c(C(=O)NCc3ccc(F)cc3F)cn2[C@@H]2[C@H]1CCC2(F)F [Compound I-038]
7.1 nM	CCN1C(=O)c2c(O)c(=O)c(C(=O)NCc3cccc(Cl)c3F)cn2[C@H]2CCC3(CC3)C[C@H]21 [Compound I-036]
7 nM	CCN1C(=O)c2c(O)c(=O)c(C(=O)NCc3cccc(Cl)c3F)cn2[C@@H]2[C@H]1[C@H]1CC[C@@H]2O1 [Compound I-044]
5.4 nM	CCN1C(=O)c2c(O)c(=O)c(C(=O)NCc3ccc(F)cc3F)cn2[C@H]2Cc3ccccc3[C@H]21 [Compound I-035]
12 nM	CCN1C(=O)c2c(O)c(=O)c(C(=O)NCc3nccc(Cl)c3F)cn2[C@@H]2CC(F)(F)CC[C@@H]21 [Compound I-041]
3.6 nM	CCN1C(=O)c2c(O)c(=O)c(C(=O)NCc3ccc(F)cc3F)cn2[C@H]2[C@@H]1CCC2(F)F [Compound I-037]

system: HIV mutant strains (E92Q/E138T/G140S/Q148H); assay: Test Example 2: Resistance evaluation test (HeLa-CD4 cells, wild and mutant strain); format: cell-based; conditions: 3 days
Procedure: Test Example 2: Resistance Evaluation Test
Serial dilutions of a test sample were prepared in a 96-well microplate (50 μL/well). 2.5×10^5 cells/mL of a HeLa-CD4 cell suspension was dispensed at 100 μL/well to the plate containing the test sample. Then, an HIV virus solution (wild strain and mutant strain) was dispensed at 50 μL/well. The plate was mixed with a plate mixer and cultured for 3 days in a CO2 incubator. The culture supernatant in each well was removed by suction. A cell lysis buffer was dispensed at 100 μL/well, and the plate was frozen in a freezer (−80° C.). The plate frozen in a freezer was thawed at room temperature, then mixed with a plate mixer, and centrifuged at 1,200 rpm for 5 minutes. Beta-Glo Reagent was dispensed at 20 μL/well to a 384-well microplate, 2 μL of the supernatant of each well (diluted as necessary) of the plate after centrifugation was added, and then the mixture was reacted at room temperature for about 30 minutes. The amount of luminescence of the plate after the reaction was measured with a microplate reader. A 50% HIV inhibitory concentration (EC50) was determined from a concentration-dependent curve using the following 4 parameter logistic curve fitting model. y=A+((B−A)/(1+((C/x)^D))) • A=minimum rate of inhibition (negative control, 0%) • B=maximum rate of inhibition (positive control, 100%) • C=compound concentration at an inflection point • D=slope coefficient • x=compound concentration • y=rate of inhibition (%)
The degree of resistance (fold change (FC)) of each mutant strain was calculated according to the following expression. • FC=EC50 of the mutant strain/EC50 of the wild strain (Results)

SMILES	FC (fold change, degree of resistance) = EC50 of the mutant strain/EC50 of the wild strain
CCN1C(=O)c2c(O)c(=O)c(C(=O)NCc3cccc(Cl)c3F)cn2[C@H]2C[C@@H](COC)CC[C@H]21 [Compound I-014]	4.1
